This passage reports IC50 results from US20050014817A1, “Fluorothiophene derivatives, process for preparing them and pharmaceutical compositions containing them” (Pfizer Inc, priority 2003, published 2005).

For one assay, the target named is MMP-13 (Homo sapiens, UniProt P45452). The assay is described as follows: MMP-12 test adapted to MMP-13. It counts as biochemical. How it is done: (§1) The inhibitory activity of the compounds of formula (I) on metalloprotease-12 is evaluated by testing the capacity of the compounds of the invention to inhibit the proteolysis of a peptide that is an MMP-12 substrate.
(§2) The reaction starts with the sequential addition of 41 μl of FP-1 substrate (final concentration of 10 μM) to a buffer solution of 50 mM of Tris-HCl and 10 mM of CaCl2, and containing 5 mM of hydroxamic acid and 5 μl of the enzyme diluted in a 0.005% Brij-35 buffer solution. The microplates are incubated for 20 minutes at room temperature.
(§3) The compounds of the invention are tested at concentrations ranging from 0.3 to 30 μM.
(§4) The measurement of the amount of proteolysis of the peptide substrate is monitored by means of a measurement of absorbance at 405 nm using a microplate spectrophotometer, at room temperature. The IC50 values are calculated from curves in which the percentage of the catalytic activity relative to the control is represented on the x-axis and the inhibitor concentration is represented on the y-axis.
The test described above for the inhibition of MMP-12 is adapted and used to determine the capacity of the compounds of formula (I) to inhibit the metalloproteases MMP-1, MMP-2, MMP-3, MMP-7, MMP-9, MMP-13 and MMP-14.

In a further assay the target is MMP-12 (Homo sapiens, UniProt P39900). The assay is described as follows: In vitro inhibition of MMP-12 proteolysis of fluorigenic peptide FP-1. It counts as biochemical. The following applies: FP-1 substrate 10 μM, 20 minutes at room temperature. How it is done: In Vitro Evaluation of the Inhibitory Activity of the Compounds of the Invention on MMP-12:
as §1
The substrate peptide used (fluorigenic peptide-1: FP-1) in the test has the following sequence: Mca-Pro-Leu-Gly-Leu-Dap(Dnp)-Ala-Arg-NH2.
The inhibitory activity of a compound of formula (I) is expressed as the IC50 value, which represents the concentration of inhibitor for which a 50% inhibition of the metalloprotease is observed.
as §2, §3, §4

Sequence of MMP-12 (P39900 106-470): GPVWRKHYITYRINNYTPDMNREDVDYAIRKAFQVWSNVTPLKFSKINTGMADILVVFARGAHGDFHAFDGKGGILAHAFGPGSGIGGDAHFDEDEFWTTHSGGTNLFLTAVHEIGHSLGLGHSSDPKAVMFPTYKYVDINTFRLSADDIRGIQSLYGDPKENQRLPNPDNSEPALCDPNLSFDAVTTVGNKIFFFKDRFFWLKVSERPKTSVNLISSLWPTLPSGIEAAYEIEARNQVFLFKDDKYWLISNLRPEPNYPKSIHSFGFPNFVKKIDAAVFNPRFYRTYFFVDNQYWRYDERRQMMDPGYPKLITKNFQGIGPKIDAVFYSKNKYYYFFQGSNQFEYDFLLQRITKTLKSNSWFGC

Regarding `O=C(NC[C@H]1CC[C@H](C(=O)O)CC1)c1cc(-c2ccc(OC(F)(F)F)cc2)c(F)s1` [Example 1, 4-({[5-Fluoro-4-(4-trifluoromethoxyphenyl)thien-2-yl]carboxamido}-methyl)cyclohexanecarboxylic Acid], the IC50 (as a rule, the midpoint of a concentration-inhibition curve) against MMP-13 was found to be 2.8 µM; against MMP-12 it was 0.14 µM.
The matching figures for `CC(=O)c1ccc(-c2ccc(-c3cc(C(=O)N[C@H](CC(=O)O)c4ccccc4)sc3F)cc2)cc1` [Example 3, 3-(R)-Phenyl-3-({5-fluoro-4-[4-(4-acetylphenyl)phenyl]thien-2 yl}carboxamido)-propanoic Acid]: 0.085 µM and 0.024 µM.
As for `CC(=O)c1ccc(-c2ccc(-c3cc(C(=O)NC[C@H]4CC[C@H](C(=O)O)CC4)sc3F)cc2)cc1` [Example 2, trans4-({[5-Fluoro-4-(4-[4-acetylphenyl]phenyl)thien-2-yl]carboxamido}methyl)cyclohexanecarboxylic Acid], the values for the IC50 against MMP-13 and on MMP-12 were 0.038 µM and 0.007 µM, respectively.
